Here are results for 13 compounds from patent US5763433A, “Pharmaceutical compositions containing 3-beta-hydroxylated 6,7-substituted steroid derivatives, and use thereof” (Conservatoire National des Arts et Metiers, priority 1992, dated 1998).

Test [1] has as its target T1, nuclear binding of tritiated dexamethazone (glucocorticoid receptors) (Mus musculus, UniProt P06537).
T1 construct: The liver, brain, spleen and thymus are excised and the cells of each organ are recovered; from tissue; host or cells: isolated cells of liver, brain, spleen and thymus of metyrapone-treated C57BL/6 mice
T1 sequence (P06537 1-792): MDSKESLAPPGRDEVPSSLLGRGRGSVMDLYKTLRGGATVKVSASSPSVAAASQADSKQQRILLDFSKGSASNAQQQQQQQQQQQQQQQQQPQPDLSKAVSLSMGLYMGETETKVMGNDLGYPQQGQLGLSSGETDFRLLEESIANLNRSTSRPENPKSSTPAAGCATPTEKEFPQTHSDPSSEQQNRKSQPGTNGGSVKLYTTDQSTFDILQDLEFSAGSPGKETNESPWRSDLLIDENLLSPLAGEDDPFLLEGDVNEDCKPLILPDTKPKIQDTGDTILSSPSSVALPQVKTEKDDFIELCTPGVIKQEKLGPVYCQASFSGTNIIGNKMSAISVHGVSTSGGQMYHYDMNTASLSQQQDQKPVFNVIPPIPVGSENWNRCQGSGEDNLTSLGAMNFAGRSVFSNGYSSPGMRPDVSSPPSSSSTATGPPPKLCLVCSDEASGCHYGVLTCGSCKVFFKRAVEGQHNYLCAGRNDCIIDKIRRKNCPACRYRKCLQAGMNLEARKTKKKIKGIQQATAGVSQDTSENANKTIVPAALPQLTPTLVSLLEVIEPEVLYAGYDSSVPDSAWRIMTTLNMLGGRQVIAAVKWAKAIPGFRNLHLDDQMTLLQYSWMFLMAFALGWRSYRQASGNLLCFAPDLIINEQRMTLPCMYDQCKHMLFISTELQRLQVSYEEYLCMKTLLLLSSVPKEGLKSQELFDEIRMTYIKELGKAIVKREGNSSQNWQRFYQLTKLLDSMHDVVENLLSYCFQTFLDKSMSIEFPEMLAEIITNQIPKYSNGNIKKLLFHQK
Put plainly: Displacement of the nuclear binding of tritiated dexamethazone in isolated liver, brain, thymus and spleen cells. The arrangement: species or system C57BL/6 mouse. Conditions: for Displacement coefficient for nuclear binding of tritiated dexamethazone, Liver: liver cells, 100-fold excess of steroid over 2-80 nM 3H-dexamethazone, 60 min; for Displacement coefficient for nuclear binding of tritiated dexamethazone, Liver / Displacement coefficient for nuclear binding of tritiated dexamethazone, Brain / Displacement coefficient for nuclear binding of tritiated dexamethazone, Spleen / Displacement coefficient for nuclear binding of tritiated dexamethazone, Thymus: no competitor = zero, unlabelled dexamethazone = 100, mean of triplicate; for Displacement coefficient for nuclear binding of tritiated dexamethazone, Brain: brain cells; for Displacement coefficient for nuclear binding of tritiated dexamethazone, Spleen: spleen cells; for Displacement coefficient for nuclear binding of tritiated dexamethazone, Thymus: thymus cells. As to the method:
The isolated hepatocytes are incubated for 1 hour at room temperature with increasing concentrations (2-80 nM) of ^3 H-dexamethazone (DEX*). […] The hepatocyte nuclei are then isolated and purified and the radioactivity corresponding to the DEX* still bound is measured and expressed in cpm/10 ug of DNA. The area under the curve DEX* corresponds to zero displacement of the radioactivity. The area under the curve DEX*/DEX which corresponds to the displacement of radioactivity by the same molecule is taken arbitrarily as 100. The areas under the curve obtained with the other steroids makes it possible to calculate by interpolation between the areas zero and 100 their displacement coefficients for the nuclear binding of DEX*.
The mice are anesthetized with ether and bled, then perfused intracardially with physiological serum containing collagenase B (0.03 g/100 ml) for 10 minutes. […] The quantities of cells obtained are estimated on the base of the measurement of the DNA contained in the preparations.
The nuclei are recovered and their radioactive content measured as described by the authors cited above.
The area under the curve of tritiated dexamethazone alone is measured and taken as zero. […] The displacement coefficients found for each of the other steroids are calculated by interpolation on this scale, each result being the mean of a triplicate determination.

The subject of another test is anti-lysozyme IgG. Put plainly: Immunoenzymatic measurement of anti-lysozyme IgG in serum of mice immunized against lysozyme. Conditions: for Optical densities +/- SD, anti-lysozyme IgG, 1/180 serial dilution: serum 1/180; for Optical densities +/- SD, anti-lysozyme IgG, 1/180 serial dilution / Optical densities +/- SD, anti-lysozyme IgG, 1/540 serial dilution / Optical densities +/- SD, anti-lysozyme IgG, first serial dilution: s.c., mean of 5 mice; for Optical densities +/- SD, anti-lysozyme IgG, 1/180 serial dilution / Optical densities +/- SD, anti-lysozyme IgG, 1/540 serial dilution: doses and timing as E1; for Optical densities +/- SD, anti-lysozyme IgG, 1/540 serial dilution: serum 1/540; for Optical densities +/- SD, anti-lysozyme IgG, first serial dilution: serum dilution not given, PREG 0,5 g/kg, DHEA 1,0 g/kg, ADIOL 125 mg/kg 1 hour before lysozyme, 7-hydroxy-PREG and 7-hydroxy-DHEA 6,25 mg/kg, 7β-hydroxy-DHEA 50,0 mg/kg, 7- and 7β-hydroxy-ADIOL 25,0 mg/kg with lysozyme; for Effect on serum anti-lysozyme IgG (in words): steroid administered s.c. simultaneously with lysozyme; for Optical densities +/- SD, anti-lysozyme IgG, first serial dilution (*): dilution not given, PREG 0,5 g/kg 1 hour before. The format is in vivo, C57BL/6 mice. The protocol: The immunity effector effect was tested by subcutaneous injection concomitantly with that of an antigen and the 7-alpha- or 7-beta-hydroxylated derivative into C57BL/6 mice according to a standard immunization protocol (Methods in Enzymology (1980), vol. 70).
The effect of the compound as cellular immunity effector is measured by the quantity of circulating IgG directed against the antigen 21 days after the injection and after a booster injection 14 days layer.
Thirty five groups of five 6-weeks old C57BL/6 mice are given a subcutaneous injection of 200 ug of hen egg white lysozyme on days one and fourteen of the immunization protocol. Solutions of DHEA (Sigma D-4500) in dimethyl sulfoxide (DMSO) are injected in the same manner at variable times before the first injection of lysozyme. Amounts ranging from 0.25 and 2 g/kg are used. Ten other groups of 5 mice are given a subcutaneous injection of 6.25 to 50 mg/kg of 7-alpha-hydroxy-DHEA or 7-beta-hydroxy-DHEA dissolved in DMSO at the same time as the first lysozyme injection. Two groups receive only DMSO with lysozyme (controls). The blanks correspond to one group of 5 mice and are not given an injection.
Three weeks after the first injections the animals, then aged 9 weeks, are decapitated. The blood of each animal is collected and the presence of anti-lysozyme G immunoglobulins (IgG) is measured in serial dilutions of the sera by an immunoenzymatic titration using goat anti-mouse (Fc) IgG immunoglobulin labelled with peroxidase.
A group of 5 mice is given the subcutaneous injection of 125 mg/kg of 5-androstene-3-beta, 17-beta-diol (ADIOL) one hour prior to the first injection of lysozyme, and two groups of 5 mice are treated with 25 mg/kg of 7-alpha-hydroxy-ADIOL or 7-beta-hydroxy-ADIOL at the time of the first lysozyme injection.
DHEA or PREG or ADIOL is injected subcutaneously 1 hour before the first lysozyme injection. The 7-hydroxylated derivatives are administered simultaneously with the lysozyme injection. The immunoenzymatic measurement of the anti-lysozyme IgGs in the serial dilutions of the sera of each animal makes use of goat anti-mouse (Fc) IgG immunoglobulin, labelled with peroxidase in 96-well plates treated with lysozyme. The mean value of the optical densities measured in each group of 5 mice is calculated as well as the standard deviation (SD).

[2] abbreviates: * calculated from measurements on higher dilutions of the serum, 7-hydroxy-PREG 6,25 mg/kg with lysozyme.

Consider `CC(=O)[C@H]1CC[C@H]2[C@@H]3[C@@H](O)C=C4C[C@@H](O)CC[C@]4(C)[C@H]3CC[C@]12C` [Steroid 7β-OH-PREG, 7-beta-hydroxy-pregnenolone], for which, in test [1], the “Displacement coefficient for nuclear binding of tritiated dexamethazone, Liver” value (shortened to “Displacement coefficient … Liver”) is reported as 82.
The same measure, in the same setting: then `C[C@]12CC[C@H](O)C[C@@H]1C[C@H](O)[C@@H]1[C@@H]2CC[C@]2(C)C(=O)CC[C@@H]12` [Steroid 7β-OH-ISOA, 3-beta, 7-beta-dihydroxy-5-alpha-androstane-17-one], with 68; and `C[C@]12CC[C@H](O)C[C@@H]1[C@@H](O)C[C@@H]1[C@@H]2CC[C@]2(C)C(=O)CC[C@@H]12` [Steroid 6α-OH-ISOA, 3-beta, 6-alpha-dihydroxy-5-alpha-androstane-17-one], with 63; and `CC(=O)[C@H]1CC[C@H]2[C@@H]3C(=O)C=C4C[C@@H](O)CC[C@]4(C)[C@H]3CC[C@]12C` [Steroid 7-oxo-PREG, 3-beta-hydroxy-5-pregnen-7,20-dione], with 35.
With `C[C@]12CC[C@H](O)CC1=C[C@H](O)[C@@H]1[C@@H]2CC[C@]2(C)C(=O)CC[C@@H]12` [7β-hydroxy-DHEA, 3-beta, 7-beta-dihydroxy-androst-5-en-17-one], in the test on anti-lysozyme IgG, the “Optical densities +/- SD, anti-lysozyme IgG, 1/180 serial dilution” value was 0,31 ± 0,04; the “Optical densities +/- SD, anti-lysozyme IgG, 1/540 serial dilution” value is given as 0,13 ± 0,01; the “Optical densities +/- SD, anti-lysozyme IgG, first serial dilution” value is reported as 0,46 ± 0,06. Moreover, in the test with anti-lysozyme IgG (listed as 7-beta-OH-DHEA), the “Effect on serum anti-lysozyme IgG (in words)” value is “effect equivalent to that of DHEA injected 1 hour before the antigen, but at doses 20 times lower”. Moreover, the “Effect on serum anti-lysozyme IgG (in words)” value in the test on anti-lysozyme IgG (listed as 7-beta-hydroxy-DHEA) was “response identical with that of 1 g/kg of DHEA administered 1 hour prior to that of lysozyme”. For the same compound, the “Displacement coefficient for nuclear binding of tritiated dexamethazone, Brain” value (shortened to “Displacement coefficient … Brain”) in test [1] (100-fold excess of steroid) is on record as 65. Besides, the “Displacement coefficient … Liver” value in test [1] is 80.
For the compound `C[C@]12CC[C@H](O)C[C@@H]1CC(=O)[C@@H]1[C@@H]2CC[C@]2(C)C(=O)CC[C@@H]12` [Steroid 7-oxo-ISOA, 3-beta-hydroxy-5-alpha-androstane-7,17-dione], the “Displacement coefficient … Liver” value in test [1] was determined as 84.
With `C[C@]12CC[C@H]3[C@@H]([C@H](O)C=C4C[C@@H](O)CC[C@@]43C)[C@@H]1CC[C@@H]2O` [7-hydroxy-ADIOL, androst-5-ene-3-beta, 7-alpha, 17-beta-triol], in the test with anti-lysozyme IgG, the “Optical densities +/- SD, anti-lysozyme IgG, 1/180 serial dilution” value is recorded as 0,14 ± 0,01; the “Optical densities +/- SD, anti-lysozyme IgG, 1/540 serial dilution” value is given as 0,11 ± 0,01; the “Optical densities +/- SD, anti-lysozyme IgG, first serial dilution” value is 0,15 ± 0,02. For the same compound, the “Displacement of tritiated dexamethazone from nuclear binding / anti-glucocorticoid action (in words)” value in test [1] (100-fold excess of steroid) was “demonstrates its anti-glucocorticoid effect”. The “Displacement coefficient … Liver” value in test [1] came out at 88.
On to `C[C@]12CC[C@H](O)C[C@@H]1C[C@@H](O)[C@@H]1[C@@H]2CC[C@]2(C)[C@@H](O)CC[C@@H]12` [Steroid 7α-OH-ADIOL, 5-alpha-androstane-3-beta, 7-alpha, 17-beta-triol], for which, in test [1] (100-fold excess of steroid), the “Displacement coefficient … Brain” value is recorded as 96; the “Displacement coefficient for nuclear binding of tritiated dexamethazone, Spleen” value amounted to 125; the “Displacement coefficient for nuclear binding of tritiated dexamethazone, Thymus” value was 96. In addition, in test [1], the “Displacement coefficient … Liver” value worked out at 83.
As to `C[C@]12CC[C@H]3[C@@H]([C@@H](O)C=C4C[C@@H](O)CC[C@@]43C)[C@@H]1CC[C@@H]2O` [7β-hydroxy-ADIOL, androst-5-ene-3-beta,7-beta, 17-beta-triol], in the test on anti-lysozyme IgG, the “Optical densities +/- SD, anti-lysozyme IgG, 1/180 serial dilution” value is given as 0,18 ± 0,02; the “Optical densities +/- SD, anti-lysozyme IgG, 1/540 serial dilution” value is reported as 0,12 ± 0,01; the “Optical densities +/- SD, anti-lysozyme IgG, first serial dilution” value is 0,18 ± 0,06.
Take `C[C@]12CC[C@H](O)C[C@@H]1C[C@@H](O)[C@@H]1[C@@H]2CC[C@]2(C)C(=O)CC[C@@H]12` [Steroid 7α-OH-ISOA, 3-beta, 7-alpha-dihydroxy-5-alpha-androstane-17-one]: the “Displacement coefficient … Liver” value in test [1] is given as 102.
Turning to `CC(=O)[C@H]1CC[C@H]2[C@@H]3[C@H](O)C=C4C[C@@H](O)CC[C@]4(C)[C@H]3CC[C@]12C` [7-hydroxy-PREG, 7-alpha-hydroxy-PREG], in the test on anti-lysozyme IgG (setting [2]), the “Optical densities +/- SD, anti-lysozyme IgG, first serial dilution (*)” value is 4,46 ± 0,30. Further, the “Optical densities +/- SD, anti-lysozyme IgG, 1/180 serial dilution (*)” value in the test on anti-lysozyme IgG (* calculated from measurements on higher dilutions of the serum, 1/180, 7-hydroxy-PREG 6,25 mg/kg with lysozyme) was 2,20 ± 0,14. Further, the “Optical densities +/- SD, anti-lysozyme IgG, 1/540 serial dilution” value in the test on anti-lysozyme IgG is recorded as 0,77 ± 0,05. For the same compound, in test [1] (100-fold excess of steroid), the “Displacement coefficient … Brain” value came to 38; the “Displacement coefficient for nuclear binding of tritiated dexamethazone, Spleen” value is 81; the “Displacement coefficient for nuclear binding of tritiated dexamethazone, Thymus” value is 94. Moreover, in test [1], the “Displacement coefficient … Liver” value is given as 34.
`C[C@]12CC[C@H](O)CC1=CC(=O)[C@@H]1[C@@H]2CC[C@]2(C)C(=O)CC[C@@H]12` [Steroid 7-oxo-DHEA, 3-beta-hydroxy-5-androsten-7,17-dione]: in test [1], the “Displacement coefficient … Liver” value is on record as 28.
On to `CC(=O)[C@H]1CC[C@H]2[C@@H]3CC=C4C[C@@H](O)CC[C@]4(C)[C@H]3CC[C@]12C` [PREG, 3-beta-hydroxy-5-pregnen-20-one, reference compound], for which, in the test on anti-lysozyme IgG (setting [2]), the “Optical densities +/- SD, anti-lysozyme IgG, first serial dilution (*)” value is given as 4,67 ± 1,21. Besides, in the test on anti-lysozyme IgG, the “Optical densities +/- SD, anti-lysozyme IgG, 1/180 serial dilution” value was 1,83 ± 0,48 and the “Optical densities +/- SD, anti-lysozyme IgG, 1/540 serial dilution” value was 0,56 ± 0,15. Further, the “Effect on serum concentrations of anti-lysozyme IgG (in words)” value in the test on anti-lysozyme IgG (steroid administered s.c. at least one hour prior to the injection of lysozyme) is “increase the serum concentrations of anti-lysozyme IgG”.
